{
  "source": "patent US9375441B2",
  "about": "“Lactulose for bowel evacuation” (Cumberland Pharmaceuticals, priority 2011, dated 2016)",
  "origin": "cited, not measured here",
  "key": {"[1]": {"test_system": "patients with a history of chronic constipation"}, "[2]": {"test_system": "patients at increased risk for colorectal cancer"}, "[3]": {"test": "not given", "remark": "listed apart in the source"}},
  "data": [
    {"compound": "OC[C@H]1O[C@@H](O[C@@H]2[C@@H](CO)O[C@](O)(CO)[C@H]2O)[C@H](O)[C@@H](O)[C@H]1O", "note": "[lactulose, 4-O-b-D-Galactopyranosyl-D-fructofuranose]", "values": [
      {"measurement": "state in which oral doses reach the colon", "setting": "no hydrolysing enzyme in human gastrointestinal tissue", "result": "virtually unchanged"},
      {"measurement": "absorption from the gastrointestinal tract", "setting": "oral", "result": "poorly absorbed"},
      {"measurement": "number of bowel movements per day and number of days on which bowel movements occur", "setting": "[1]", "result": "increases"},
      {"measurement": "patients with diarrhea sometime during the bowel preparation, %", "setting": "[2]; 12 g lactulose powder once per day from 48 hours before MR colonography", "result": 38, "unit": "%"},
      {"measurement": "patients with diarrhea sometime during the bowel preparation, number", "setting": "[2]; 12 g lactulose powder once per day from 48 hours before MR colonography, low-fiber diet, oral gadolinium contrast", "result": 77},
      {"measurement": "patients in whom diarrhea occurred just prior to imaging, number", "setting": "[2]; of the 77 patients with diarrhea", "result": 48},
      {"measurement": "solubility in water", "setting": "[3]", "result": "freely soluble"}
    ]}
  ]
}
